How the values were obtained:
Assay type in all cases: cell-based
[1] = test system: human large bowel cancer cells (HT29 line); experiment: Drug sensitivity in combination with oxaliplatin (cell viability); conditions: miRNA 50 nM, oxaliplatin 0-128 μM for 72 hours, compared to only oxaliplatin and to control plus oxaliplatin, FIG. 16
Procedure: A cell suspension prepared by suspending human large bowel cancer cells (HT29 line) in RPMI medium was seeded in each well of a 6-well plate at 3×10^5 cells/well, and a mixture of lipofectamin RNAiMAX Regent (final concentration in well: 0.03 μL/well) and hsa-miR-3065-3p (final concentration in well: 50 nM) was further added, followed by culture for 1 day. Then, cells were recovered and suspended in RPMI medium, and were seeded in each well of a 96-well plate at 3×10^3 cells/well, followed by culture for 2 days. Thereafter, oxaliplatin was added to each well at 0, 2, 4, 8, 16, 32, 64 or 128 μM, followed by additional culture for 72 hours. After culture, living cells in each well were counted by GloMax-Multi Detection System (Promega Corporation). When the number of living cells under a condition where oxaliplatin was not added was 100%, the ratio of the number of living cells under each condition (cell viability, %) was determined. In addition, tests were also performed under the same condition on a case where a control miRNA (SEQ ID NO: 9) was used (control miRNA, negative control) in place of hsa-miR-3065-3p, and on a case where no miRNA was added.

[2] = test system: human large bowel cancer cells (HT29 line, HCT116 line and DLD1 line); experiment: Proliferation assay (absorbance at 450 nm over time); conditions: HT29, HCT116 and DLD1 lines; 50 nM; culture for 96 hours; versus control miRNA; FIG. 13
Procedure: A cell suspension prepared by suspending human large bowel cancer cells (HT29 line, HCT116 line and DLD1 line) in DMEM medium (containing 10% by volume FBS) was seeded in each well of a 96-well plate at 3×10^3 cells/well, followed by culture at 37° C. overnight. Then, a mixture of lipofectamin RNAiMAX, Reagent (final concentration in each well: 0.03 μL/ml) and hsa-miR-3065-3p (final concentration in each well: 50 nM) was added for transfection. Subsequently, culture was carried out for 96 hours, and the absorbance at 450 nm was measured over time. In addition, tests were also performed wider the same condition on a case where a control miRNA (SEQ ID NO: 9) was used (control miRNA, negative control) in place of hsa-miR-3065-3p.
In FIG. 13, the time-course of relative values of the absorbance is shown, in which the relative values were determined when the absorbance after culture for 24 hours from transfection of hsa-miR-3065-3p was 1. […] This is because, as described above, among human large bowel cancer cells (HT29 line, HCT116 line and DLD1 line), cancer stem cells are present, so that hsa-miR-3065-3p is considered to intensively suppress proliferation of the cancer stem cells in particular, leading to the result.

[3] = test system: human large bowel cancer cells (DLD1 line); experiment: Infiltration assay (Matrigel Invasion Chambers); conditions: 20 pmol/cell culture insert, 48 hours, versus control miRNA, FIG. 15
Procedure: The infiltration assay was performed using BD Matrigel Invasion Chambers, 12 Chambers per 24-Well Plate (BD Biosciences). First, […] of RPMI medium (containing 10% by volume FBS) was added in the wells of a companion plate. Furthermore, in a cell culture insert having a Matrigel basement membrane, a mixture of human large bowel cancer cells (DLD1 line) at 1×10^6 cells/well, lipofectamin RNAiMAX Regent (final concentration in the cell culture insert: 2 μL/ml) and hsa-miR-3065-3p (final concentration in the cell culture insert: 20 pmol/cell culture insert) was added, followed by culture for 48 hours. Thereafter, the cell culture insert was removed, and cells adhering to the outside of the Matrigel basement membrane were fixed with formalin and then stained with hematoxylin to count the cells migrated to the outside of the Matrigel basement membrane. In addition, tests were also performed under the same condition on a case where a control miRNA (SEQ ID NO: 9) was used (control miRNA, negative control) in place of hsa-miR-3065-3p.

Substance: hsa-miR-3065-3p: human-derived miR-3065-3p; base sequence set forth in SEQ ID NO: 2 as mature miRNA (UCAGCACCAGGAUAUUGUUGGAG; listed as RNA, chemistry not given here; listed as Homo sapiens)
- number of living cells (cell viability) on treatment with both hsa-miR-3065-3p and oxaliplatin [1]: significantly reduce the number of living cells
- proliferation inhibitory effect on human large bowel cancer cells [2]: high proliferation inhibitory effect
- migration ability of human large bowel cancer cells (cells migrated to the outside of the Matrigel basement membrane) [3]: able to inhibit the migration ability

Source: US11439657B2, “Cancer stem cell growth inhibitor using miRNA” (CancerStem Tech Inc., priority 2017, dated 2022)
